The values that follow come from patent publication EP2050458A1, “IL24 for inducing hyperproliferative or autoimmune cell death” (INSTITUT NATIONAL DE LA SANTE ET DE LA RECHERCHE MEDICALE …, priority 2007, dated 2009).

Common to all, as to format: cell-based, human
The subject of series [1] is CLL B-cells. Briefly: Cell cycle analysis by Propidium Iodide staining and FACS. Particulars: inhibitor added with IL24 to cells cultured overnight with IL2 (IL2+IL24+inhibitor); vs 3.36 ± 1.3% without inhibitor. The procedure:
For apoptosis studies, cells were stained either with the Apo 2.7-PE mAb (Beckman-Coulter, Villepinte, France) on ice for 15 min, washed and resuspended on 300 µl of PBS 1X supplemented with 0,1% BSA or with the Annexin V-FITC apoptosis detection kit (Becton Dickinson Biosciences, Le-Pont-de-Claix, France), 1x10^5 cells in 100 µl 1X binding buffer were stained with 5 µl of Annexin V-FITC and 5 µl Propidium Iodide (PI) in the dark for 15 min at room temperature (RT). 400 µl of 1X binding buffer was added before fluorescence-activated cell sorted (FACS) analysis. For cell cycle analysis 1x10^6 cells were washed with cold PBS1X and resuspended in 1ml EtOH 70% and kept on ice for at least 10 min. Cells were then centrifuged and the pellet resuspended in 1ml PBS 1X + RNAse (40 µg) Saint-Quentin Fallavier, France) + Propidium Iodide (18 µl) at room temperature. […]
Fluorescence was measured using a FACScan flow cytometer (BD Biosciences), and data analysis was performed using CellQuest software (BD Biosciences).
It was next determined whether the inhibition of thymidine incorporation by B-cells reflected cell cycle block and/or apoptosis. […] The respective percentages of hypodiploid (apoptotic) cells, and of cells in G0-G1, S and G2-M cell cycle phase, and finally of hyperdiploid cells were evaluated (M1 to M4 populations respectively in figure 3a). […]

The test system of series [2] is P-stat3. Briefly: Stat3 phosphorylation (Phospho-Y705 stat3) by western blot and immunostaining in CLL cells. The procedure: For pervanadate experiments, fresh CLL cells were preincubated or not with IL2 overnight, then incubated or not with pervanadate 25 µM during 5 min and stimulated or not with IL24 for 10 min and lysed as previously described. Blots were hybridyzed with anti phospho-Tyr 705-STAT3 (B-7) MAb (Tebu-bio), dehybridyzed and reblotted with anti STAT3 MAb (BD Transduction Laboratories).
Stat3 was strongly and stably phosphorylated in cells incubated overnight with IL2 as evidenced by hybridization with an anti Phospho-Y705 stat3 MAb. In contrast, phospho(P)-stat5 disappeared and total stat5 diminished in the cytosol of cells incubated overnight with IL2, presumably due to dimerization and translocation to the nucleus (Paukku et al. Cytokine Growth Factor Rev. 2004. 6:435-55).
Cells were therefore incubated or not for 5 min with […] pervanadate (PV), an inhibitor of protein tyrosine phosphatase activity (Heffetz and Bushkin H. J Biol Chem. 1990. 265:2896-902) and stimulated 10 min with IL24 on cells preincubated or not with IL2. Cytospin and western blot experiments were performed.
Troglitazone (TG) is an activator of protein-tyrosine phosphatase (PTP)-1B that reduced P-Y705-stat3 and promoted apoptosis in human primary gliomas (Akasaki et al. J Biol Chem. 2005. 281:6165-74). TG was therefore used to determine if it is able to stimulate p53 expression and apoptosis in CLL. […]

In series [3] the test system is CLL cells. Briefly: CLL cell survival in culture (trypan blue cell count, cell cycle analysis). The note with it: culture for > 30 min. The procedure:
• Figure 1. rIL24 protects CLL B-cells from death in culture. • a) CLL cells (2x10^6/ml) were cultured in complete medium (•) or with 100 ng/ml rIL24 (▲) every 7 days and cells counted using trypan blue exclusion. % living cells was calculated in each sample (mean ± SD, n=8). b) Cell scatter, Apoptosis shown by Apo 2.7-PE staining, and cell cycle shown by PI staining from one representative sample (CLL 70) at day 21. M1: hypodiploid (apoptotic cells) M2: cells into G0/G1, M3: cells into S+G2+M, M4: hyperdiploid cells. • Figure 2. rIL24 inhibits thymidine incorporation in activated CLL cells. • a) IL24 was added to IL2-cultured cells as in figure 1, one day before (d-1) at the same time (d0) or one day after (d=1) IL2. b) IL24 was added to CLL cells cultured for 24 h with IL2, IL2+CD40-Ligand or anti-IgM+CD40-Ligand. Tymidine (0.5 mCi/ml) was added at day 3 for 15 h. […] Mean ± SD (n=8) of the M1 to M4 populations calculated as in (a) from CLL cells cultured with IL2 (hatched histogram) or IL2 then IL24 (white histogram). […] RNA was extracted at day 3, reverse-transcribed, amplified and analyzed by real-time PCR. […]

Where a SMILES comes first, the peptide text is derived from it. The star is where a group is joined. Cbz = O=C(OCc1ccccc1)*; CH2F = FC*

For `Cc1ccc(C(=O)Cn2c3c(sc2=N)CCCC3)cc1` [Pft-a, Pifithrin], the “cells in S/G2/M” value in series [1] is 6.44 ± 2.2%. In the case of pervanadate [PV], the “IL24-mediated inhibition of P-Stat3” value in series [2] (5 min with 25 µM pervanadate, then 10 min IL24) is “antagonized”. Moreover, the toxicity in culture result in series [3] is recorded as “too toxic”. In the case of `COC(=O)C[C@H](NC(=O)[C@H](C)NC(=O)[C@@H](NC(=O)OCc1ccccc1)C(C)C)C(=O)CF` [zvad, ZVAD-fmk] (Cbz-Val-Ala-Asp(OMe)-CH2F), the “cells in S/G2/M” value in series [1] is listed as 4.8 ± 1.77%.

Regarding `Cc1c(C)c2c(c(C)c1O)CCC(C)(COc1ccc(CC3SC(=O)NC3=O)cc1)O2` (centres unmarked) [TG, Troglitazone], the “total Stat3 expression” value in series [2] (IL2-cultured CLL cells) was “no effect”.
